Test results: patent US11071768B2, “Caspofungin compositions for inhalation” (TRILOGY THERAPEUTICS, INC., priority 2018, dated 2021)
≈ marks a conversion by molar mass, not a printed value. Where two headings read alike, the source gives them in different places.

Legend:
[1] = Toxicology observations in the rat pharmacokinetic study; type: in vivo; conditions: male rats, nose-only inhalation or intravenous injection
Description: A detailed, hand-held physical examination was conducted on all animals once during the quarantine period (prior to randomization). During the treatment period, the animals were observed daily for mortality or evidence of moribundity; these checks were separated by a minimum of four hours. Daily cage-side clinical observations were conducted during exposure, and daily hand-held clinical observations were conducted before and after exposure. Observations included, but were not limited to the following: changes in the skin and fur, eyes, and mucous membranes; effects on the respiratory, circulatory, autonomic and central nervous systems; and effects on somatomotor activity and behavior pattern.
Body Weights and Body Weight Changes: Body weights were determined one day after animal receipt; at randomization; and prior to exposure on Study Day 1, 2, 3 and 7 (as applicable based on scheduled euthanization).
Plasma and Tissue Samples/Necropsy: Whole blood samples were collected from three animals per time-point at approximately 0.5, 1, 2, 4, 8, 12, 24 and 48 hours and 7 days after dose administration for plasma drug level determination. Rats were anesthetized with 70% CO2/30% air and blood was collected from the retro-orbital plexus and placed into tubes containing anticoagulant (EDTA). Blood samples were placed on ice immediately following collection and processed (i.e., centrifuged) to plasma. The samples were then stored frozen (at approximately −70° C.) until analyzed. All study animals surviving to scheduled necropsy were euthanized by an overdose of an intraperitoneal injection of sodium pentobarbital at […]. Tissue specimens (lung, liver and kidney) were collected from three animals per time point at 0.5, 2, 24 and 48 hours and 7 days after dose administration. All tissue specimens were stored frozen at approximately −70° C. until analyzed.

Aspergillus fumigatus = conditions: cited from earlier work
Aspergillus flavus = conditions: cited from earlier work
Aspergillus nidulans = conditions: cited from earlier work
Aspergillus niger = conditions: cited from earlier work
Aspergillus terrus = conditions: cited from earlier work
Aspergillus versicolor = conditions: 75 isolates; cited from earlier work
Candida albicans = conditions: 2869 isolates; cited from earlier work
Candida glabrata = conditions: 747 isolates; cited from earlier work
Candida tropicalis = conditions: 625 isolates; cited from earlier work
Candida krusei = conditions: 136 isolates; cited from earlier work
Candida parapsilosis = conditions: 759 isolates; cited from earlier work
Candida guilliermondii = conditions: 61 isolates; cited from earlier work
All Candida spp. = conditions: All Candida spp., 5,346 isolates; cited from earlier work
[2] = 2 mg/kg, cited from earlier work

**Q.** Which “Clinical signs of toxicity” value [1] does the source give for `CC[C@H](C)C[C@H](C)CCCCCCCCC(=O)N[C@H]1C[C@@H](O)[C@@H](NCCN)NC(=O)[C@@H]2[C@@H](O)CCN2C(=O)[C@H]([C@H](O)CCN)NC(=O)[C@H]([C@H](O)[C@@H](O)c2ccc(O)cc2)NC(=O)[C@@H]2C[C@@H](O)CN2C(=O)[C@H]([C@@H](C)O)NC1=O` [caspofungin] here?
**A.** The value was “no clinical signs of toxicity”.

**Q.** What about the “Effects on body weight” value [1] of the same compound?
**A.** The value was “no effects on body weight”.

**Q.** What about the Gross necropsy findings [1] of the same compound?
**A.** The Gross necropsy findings was “no gross necropsy findings”.

**Q.** And the Mortality [1]?
**A.** The Mortality was “no test-article related mortality”.

**Q.** What about the “MIC90 Average (Geometric Mean MIC)” value (Aspergillus fumigatus; 56 isolates) of the same compound?
**A.** The value was 0.25 µg/mL (≈ 0.229 µM).

**Q.** What about the “MIC90 Range” value (Aspergillus fumigatus; 56 isolates) of the same compound?
**A.** Its value is 0.12 to 4 µg/mL.

**Q.** What about the “MEC Average (Mode)” value (Aspergillus fumigatus; 1691 isolates) of the same compound?
**A.** The value was 0.25 µg/mL.

**Q.** What about the “MEC Range” value (Aspergillus fumigatus; 1691 isolates) of the same compound?
**A.** The value was 0.016 to 32 µg/mL.

**Q.** And the “MIC90 Average (Geometric Mean MIC)” value (Aspergillus flavus; 13 isolates)?
**A.** The value was 0.2 µg/mL (≈ 0.183 µM).

**Q.** And the “MIC90 Range” value (Aspergillus flavus; 13 isolates)?
**A.** Its value is 0.06 to 2 µg/mL.

**Q.** And the “MEC Average (Mode)” value (Aspergillus flavus; 432 isolates)?
**A.** Its value is 0.06 µg/mL.

**Q.** What about the “MEC Range” value (Aspergillus flavus; 432 isolates) of the same compound?
**A.** The value was 0.016 to 32 µg/mL.

**Q.** What about the “MIC90 Average (Geometric Mean MIC)” value (Aspergillus nidulans; 13 isolates) of the same compound?
**A.** The value was 0.44 µg/mL (≈ 0.402 µM).

**Q.** What about the “MIC90 Range” value (Aspergillus nidulans; 13 isolates) of the same compound?
**A.** The value was 0.2 to 4 µg/mL.

**Q.** And the “MEC Average (Mode)” value (Aspergillus nidulans; 192 isolates)?
**A.** The value was 0.12 µg/mL.

**Q.** And the “MEC Range” value (Aspergillus nidulans; 192 isolates)?
**A.** Its value is 0.032 to 16 µg/mL.

**Q.** And the “MIC90 Average (Geometric Mean MIC)” value (Aspergillus niger; 10 isolates)?
**A.** The value was 0.14 µg/mL (≈ 0.128 µM).

**Q.** And the “MIC90 Range” value (Aspergillus niger; 10 isolates)?
**A.** Its value is 0.06 to 0.5 µg/mL.

**Q.** What about the “MEC Average (Mode)” value (Aspergillus niger; 440 isolates) of the same compound?
**A.** Its value is 0.06 µg/mL.

**Q.** What about the “MEC Range” value (Aspergillus niger; 440 isolates) of the same compound?
**A.** Its value is 0.016 to 2 µg/mL.

**Q.** What about the “MIC90 Average (Geometric Mean MIC)” value (Aspergillus terrus; 11 isolates) of the same compound?
**A.** Its value is 0.12 µg/mL (≈ 0.11 µM).

**Q.** And the “MIC90 Range” value (Aspergillus terrus; 11 isolates)?
**A.** The value was 0.06 to .2 µg/mL.

**Q.** And the “MEC Average (Mode)” value (Aspergillus terrus; 385 isolates)?
**A.** Its value is 0.06 µg/mL.

**Q.** And the “MEC Range” value (Aspergillus terrus; 385 isolates)?
**A.** Its value is 0.016 to 2 µg/mL.

**Q.** And the “MEC Average (Mode)” value (Aspergillus versicolor)?
**A.** Its value is 0.12 µg/mL.

**Q.** What about the “MEC Range” value (Aspergillus versicolor) of the same compound?
**A.** The value was 0.032 to 2 µg/mL.

**Q.** What about the MIC90 (Candida albicans) of the same compound?
**A.** The MIC90 was 0.06 µg/mL (≈ 0.0549 µM).

**Q.** And the MIC90 (Candida glabrata)?
**A.** The MIC90 was 0.06 µg/mL (≈ 0.0549 µM).

**Q.** What about the MIC90 (Candida tropicalis) of the same compound?
**A.** The MIC90 was 0.06 µg/mL (≈ 0.0549 µM).

**Q.** What about the MIC90 (Candida krusei) of the same compound?
**A.** The MIC90 was 0.25 µg/mL (≈ 0.229 µM).

**Q.** What about the MIC90 (Candida parapsilosis) of the same compound?
**A.** Its MIC90 is 1 µg/mL (≈ 0.915 µM).

**Q.** What about the MIC90 (Candida guilliermondii) of the same compound?
**A.** Its MIC90 is 1 µg/mL (≈ 0.915 µM).

**Q.** And the MIC90 (All Candida spp.)?
**A.** Its MIC90 is 0.25 µg/mL (≈ 0.229 µM).

**Q.** What about the “Kidney concentration, radiolabeled compound (Stone 2004)” value (“Kidney concentration” for short) ([2]; 0.5 h) of the same compound?
**A.** Its value is 9.15 µg/g.

**Q.** What about the “Kidney concentration” value ([2]; 2 h) of the same compound?
**A.** Its value is 10.60 µg/g.

**Q.** What about the “Kidney concentration” value ([2]; 24 h) of the same compound?
**A.** The value was 11.40 µg/g.
